Read-outs that look alike come from different tables or passages of the source.
Columns and labels:
Assay in all cases: cells
Type in all cases: cell-based
[1] = test system: A2780 (human ovarian carcinoma) cells; conditions: for IC50: Homo sapiens
[2] = test system: MCF7 (breast carcinoma) cells; conditions: Homo sapiens
[3] = test system: HT29 (colorectal carcinoma) cells; conditions: Homo sapiens
[4] = test system: A2780cis (ovarian carcinoma) cells; conditions: Homo sapiens
[5] = test system: A549 (lung carcinoma) cells; conditions: Homo sapiens
[6] = test system: CCD18Co (non-malignant human fibroblasts); conditions: CCD-18Co
[7] = test system: panel of five different human tumor cell lines; conditions: read-out: IC50 range over tumor cell lines
[8] = A2780, 72 h, read-out: IC50 A2780
[9] = MCF7, 72 h, read-out: IC50 MCF7
[10] = HT-29, 72 h, read-out: IC50 HT29
[11] = A549, 72 h, read-out: IC50 A549

Row | Structure (SMILES) | IC50 [1, 8] | IC50 [2, 9] | IC50 [3, 10] | IC50 ([4]; 72 h, read-out: IC50 A2780cis) | IC50 [5, 11] | IC50 ([6]; 72 h, read-out: IC50 CCD18Co) | also measured
1 | CCCCCCCCCCCCC(=O)NCc1ccc(O)c(OC)c1 [Compound 17, N-[(4-Hydroxy-3-methoxy)benzyl]tridecanamide] | < 10 µM | – | – | – | – | – | –
2 | CCCCCCCCCCCC(=O)NCc1ccc(O)c(OC)c1 [Compound 15, N-[(4-Hydroxy-3-methoxy)benzyl]dodecanamide] | < 10 µM | – | – | – | – | – | –
3 | CCCCCCCCCCCCCCCCC(=O)NCc1ccc(O)c(OC)c1 [Compound 25, N-[(4-Hydroxy-3-methoxy)benzyl]heptadecanamide] | – | 38.4 µM | 78.5 µM | > 100 µM | 60.5 µM | > 100 µM | –
4 | CCCCCCCCCCCCCCCCCC(=O)NCc1ccc(O)c(OC)c1 [Compound 27, N-[(4-Hydroxy-3-methoxy)benzyl]octadecanamide] | – | 32.6 µM | 42.4 µM | 76.4 µM | 50.3 µM | > 100 µM | Selectivity index SI (IC50 CCD18Co/IC50 A2780) [1]: >29.0
5 | CCCCCCCCCCCCCC(=O)NCc1ccc(O)c(OC)c1 [Compound 19, N-[(4-Hydroxy-3-methoxy)benzyl]tetradecanamide] | < 10 µM | – | – | – | – | – | –
6 | CCCCCCCCCCCCCCCCCCC(=O)NCc1ccc(O)c(OC)c1 [Compound 29, N-[(4-Hydroxy-3-methoxy)benzyl]nonadecanamide] | – | 15.9 µM | 68.4 µM | 59.5 µM | 55.3 µM | > 100 µM | –
7 | CCCCCCCCCCCCCCC(=O)NCc1ccc(O)c(OC)c1 [Compound 21, N-[(4-Hydroxy-3-methoxy)benzyl]pentadecanamide] | < 10 µM | – | – | – | – | – | –
8 | COc1cc(CNC(=O)CCCCC=CC(C)C)ccc1O [A, 8-methyl-N-vanillyl-6-nonenamide, reference compound] | 15.9 µM | 42.1 µM | 51 µM | 84.3 µM | 70.3 µM | > 100 µM | IC50 ([2]; MCF7, read-out: IC50 MCF7, converted into μg/mL): 12.9 µg/mL; IC50 [7]: 15 to 84 µM; IC50 ([3]; HT-29, read-out: IC50 HT29, converted into μg/mL): 15.6 µg/mL; IC50 ([4]; read-out: IC50 A2780cis, converted into μg/mL): 25.8 µg/mL; Selectivity index SI (IC50 CCD18Co/IC50 A2780) [1]: >6.3; IC50 ([1]; A2780, read-out: IC50 A2780, converted into μg/mL): ~4.86 µg/mL; IC50 ([5]; A549, read-out: IC50 A549, converted into μg/mL): 21.5 µg/mL; IC50 ([6]; read-out: IC50 CCD18Co, converted into μg/mL): > 30.5 µg/mL
